From paper PMC2248166, “Quantitative peptide binding motifs for 19 human and mouse MHC class I molecules derived using positional scanning combinatorial peptide libraries” (Immunome Research, 2008)
pIC50: −log10 of the molar value. Where a SMILES comes first, the peptide text is derived from it.

Molecular target: HLA B*0801 (Homo sapiens, UniProt P01889, A93T/A95T/D138N/E176V/E187T/K202T/Q94N/R180D/S35A/V36M/Y33D/Y91F)
Assay: biochemical
Assay type: binding

SMILES	pIC50
CC(C)C[C@H](NC(=O)[C@H](C)NC(=O)[C@H](CO)NC(=O)[C@H](Cc1ccccc1)NC(=O)[C@H](CCCCN)NC(=O)[C@H](CCCNC(=N)N)NC(=O)[C@H](CC(C)C)NC(=O)[C@H](Cc1ccc(O)cc1)NC(=O)[C@@H](N)CO)C(=O)O [3102.0770] (H-SYLRKFSAL-OH)	8.22
CC[C@H](C)[C@H](NC(=O)[C@H](CCC(N)=O)NC(=O)[C@H](CCC(=O)O)NC(=O)[C@H](Cc1ccccc1)NC(=O)[C@H](Cc1ccc(O)cc1)NC(=O)[C@H](CC(=O)O)NC(=O)[C@H](CCCNC(=N)N)NC(=O)[C@H](CC(C)C)NC(=O)[C@@H](N)CCC(=O)O)C(=O)O [3102.0939] (H-ELRDYFEQI-OH)	7.89
C[C@H](NC(=O)[C@H](CCCCN)NC(=O)[C@H](Cc1ccccc1)NC(=O)[C@H](CCCCN)NC(=O)[C@H](CC(=O)O)NC(=O)[C@H](CCCNC(=N)N)NC(=O)[C@H](CC(N)=O)NC(=O)[C@@H](N)Cc1ccc(O)cc1)C(=O)N[C@@H](Cc1ccccc1)C(=O)O [3102.0564] (H-YNRDKFKAF-OH)	7.70
CC[C@H](C)[C@H](NC(=O)[C@@H](NC(=O)[C@H](CC(N)=O)NC(=O)[C@H](CCCCN)NC(=O)[C@H](CCCNC(=N)N)NC(=O)[C@@H](NC(=O)[C@H](Cc1ccccc1)NC(=O)[C@H](CC(C)C)NC(=O)[C@@H](N)Cc1ccc(O)cc1)[C@@H](C)CC)C(C)C)C(=O)O [3102.0531] (H-YLFIRKNVI-OH)	9.15
CC(C)C[C@H](NC(=O)[C@@H](NC(=O)[C@H](CO)NC(=O)[C@H](Cc1ccccc1)NC(=O)[C@H](CC(C)C)NC(=O)[C@H](CO)NC(=O)[C@H](CC(C)C)NC(=O)[C@H](CC(C)C)NC(=O)[C@@H](N)Cc1ccc(O)cc1)[C@@H](C)O)C(=O)O [3102.0750] (H-YLLSLFSTL-OH)	8.40
CC[C@H](C)[C@H](NC(=O)[C@H](CC(=O)O)NC(=O)[C@H](CC(C)C)NC(=O)[C@@H]1CCCN1C(=O)[C@H](CCCCN)NC(=O)[C@H](CC(C)C)NC(=O)[C@H](CCCNC(=N)N)NC(=O)[C@H](C)NC(=O)[C@@H](N)CC(N)=O)C(=O)O [3102.0711] (H-NARLKPLDI-OH)	9.09
CC[C@H](C)[C@H](NC(=O)CNC(=O)[C@@H]1CCCN1C(=O)[C@@H](N)CO)C(=O)N[C@@H](CCCNC(=N)N)C(=O)N1CCC[C@H]1C(=O)N[C@@H](CCCNC(=N)N)C(=O)N[C@@H](Cc1ccccc1)C(=O)N[C@@H](CC(C)C)C(=O)O [3102.0532] (H-SPGIRPRFL-OH)	7.25
CC[C@H](C)[C@H](NC(=O)[C@H](CCCCN)NC(=O)[C@@H](NC(=O)[C@H](CCCNC(=N)N)NC(=O)[C@H](CC(C)C)NC(=O)[C@@H](N)C(C)C)[C@@H](C)O)C(=O)N[C@H](C(=O)N[C@@H](CO)C(=O)N[C@@H](CC(C)C)C(=O)O)[C@@H](C)O [3102.0709] (H-VLRTKITSL-OH)	9.04
CC[C@H](C)[C@H](NC(=O)[C@H](CCCCN)NC(=O)[C@@H](NC(=O)[C@H](CCCCN)NC(=O)[C@@H](NC(=O)[C@@H](N)CC(=O)O)[C@@H](C)CC)[C@@H](C)O)C(=O)N[C@@H](CCSC)C(=O)N[C@H](C(=O)N[C@@H](CC(C)C)C(=O)O)C(C)C [3102.0683] (H-DIKTKIMVL-OH)	7.14
CC[C@H](C)[C@H](NC(=O)[C@H](CCCNC(=N)N)NC(=O)[C@H](CCC(=O)O)NC(=O)[C@H](CCCCN)NC(=O)[C@H](CCSC)NC(=O)[C@@H](N)CC(C)C)C(=O)N[C@@H](CO)C(=O)N[C@@H](CO)C(=O)N[C@@H](CCC(=O)O)C(=O)O [3102.0597] (H-LMKERISSE-OH)	7.09
CC[C@H](C)[C@H](NC(=O)[C@H](CO)NC(=O)[C@H](CC(C)C)NC(=O)[C@H](CCSC)NC(=O)[C@H](CO)NC(=O)[C@H](CCCNC(=N)N)NC(=O)[C@@H]1CCCN1C(=O)[C@@H](N)Cc1ccccc1)C(=O)N[C@@H](Cc1ccccc1)C(=O)O [3102.0543] (H-FPRSMLSIF-OH)	8.00
CC[C@H](C)[C@H](NC(=O)[C@H](CC(=O)O)NC(=O)[C@H](CC(N)=O)NC(=O)[C@@H](NC(=O)[C@H](CCCCN)NC(=O)[C@@H](NC(=O)[C@H](CCCCN)NC(=O)[C@@H]1CCCN1C(=O)[C@@H](N)CCCNC(=N)N)[C@@H](C)CC)[C@@H](C)O)C(=O)O [3102.0737] (H-RPKIKTNDI-OH)	8.68
CC[C@H](C)[C@H](NC(=O)[C@H](Cc1c[nH]cn1)NC(=O)[C@H](Cc1ccccc1)NC(=O)[C@H](CC(C)C)NC(=O)[C@H](CC(N)=O)NC(=O)[C@@H]1CCCN1C(=O)[C@H](CC(C)C)NC(=O)[C@@H](N)CCCNC(=N)N)C(=O)N[C@@H](CC(C)C)C(=O)O [3102.0632] (H-RLPNLFHIL-OH)	7.16
CC[C@H](C)[C@H](NC(=O)[C@H](CCCNC(=N)N)NC(=O)[C@@H](N)CO)C(=O)N[C@@H](CO)C(=O)N[C@@H](CCCNC(=N)N)C(=O)N[C@@H](Cc1ccccc1)C(=O)N[C@@H](C)C(=O)N[C@@H](CC(N)=O)C(=O)N[C@@H](CC(C)C)C(=O)O [3102.0622] (H-SRISRFANL-OH)	7.70
CC(C)C[C@H](NC(=O)[C@@H](NC(=O)[C@H](CCCNC(=N)N)NC(=O)[C@H](Cc1ccccc1)NC(=O)[C@H](CCCCN)NC(=O)[C@H](CO)NC(=O)[C@H](CC(C)C)NC(=O)[C@H](CCC(N)=O)NC(=O)[C@@H](N)CC(=O)O)[C@@H](C)O)C(=O)O [3102.0710] (H-DQLSKFRTL-OH)	8.13
CC(C)C[C@H](NC(=O)[C@@H](NC(=O)[C@@H](NC(=O)[C@H](CC(N)=O)NC(=O)[C@H](Cc1ccccc1)NC(=O)[C@H](CC(C)C)NC(=O)[C@H](CCCCN)NC(=O)[C@H](CC(C)C)NC(=O)[C@@H](N)CCC(=O)O)C(C)C)[C@@H](C)O)C(=O)O [3102.0729] (H-ELKLFNVTL-OH)	8.33
CC[C@H](C)[C@H](NC(=O)[C@H](CO)NC(=O)[C@H](CCSC)NC(=O)[C@H](CC(C)C)NC(=O)[C@H](CCCNC(=N)N)NC(=O)[C@H](CC(N)=O)NC(=O)[C@H](CO)NC(=O)[C@H](CC(N)=O)NC(=O)[C@@H](N)CO)C(=O)O [3102.0713] (H-SNSNRLMSI-OH)	8.00
CSCC[C@H](NC(=O)[C@@H]1CCCN1C(=O)[C@@H](N)CC(C)C)C(=O)N[C@@H](CC(C)C)C(=O)N[C@@H](Cc1ccc(O)cc1)C(=O)N[C@@H](Cc1ccccc1)C(=O)N[C@@H](CC(C)C)C(=O)N[C@@H](Cc1ccc(O)cc1)C(=O)N[C@H](C(=O)O)C(C)C [3102.0703] (H-LPMLYFLYV-OH)	8.60
CC(C)C[C@H](NC(=O)[C@H](CCC(=O)O)NC(=O)[C@@H](NC(=O)[C@H](CC(C)C)NC(=O)[C@H](CCCCN)NC(=O)[C@H](CCCNC(=N)N)NC(=O)[C@H](CCCCN)NC(=O)[C@H](C)NC(=O)[C@@H](N)CCC(=O)O)[C@@H](C)O)C(=O)O [3102.0742] (H-EAKRKLTEL-OH)	8.60
CC[C@H](C)[C@H](NC(=O)[C@H](Cc1c[nH]cn1)NC(=O)[C@H](C)NC(=O)[C@H](Cc1ccc(O)cc1)NC(=O)[C@H](CC(C)C)NC(=O)[C@@H](N)CC(C)C)C(=O)N[C@@H](CC(N)=O)C(=O)N[C@@H](C)C(=O)N[C@@H](CC(C)C)C(=O)O [3102.0757] (H-LLYAHINAL-OH)	8.85
CC[C@H](C)[C@H](NC(=O)[C@H](C)N)C(=O)N[C@@H](CCCCN)C(=O)N[C@@H](CC(C)C)C(=O)NCC(=O)N[C@@H](Cc1ccccc1)C(=O)N[C@@H](CCCCN)C(=O)N[C@@H](CO)C(=O)N[C@@H](CC(C)C)C(=O)O [3102.0664] (H-AIKLGFKSL-OH)	7.39
CC[C@H](C)[C@H](NC(=O)[C@H](Cc1ccc(O)cc1)NC(=O)[C@@H](NC(=O)[C@H](CCCCN)NC(=O)[C@H](CCCCN)NC(=O)[C@H](Cc1ccccc1)NC(=O)[C@H](CCCNC(=N)N)NC(=O)[C@@H](N)CO)C(C)C)C(=O)N[C@@H](CC(C)C)C(=O)O [3102.0579] (H-SRFKKVYIL-OH)	7.12
CSCC[C@H](NC(=O)[C@H](Cc1ccccc1)NC(=O)CN)C(=O)N[C@@H](CCCNC(=N)N)C(=O)N[C@@H](Cc1ccccc1)C(=O)N[C@@H](Cc1ccccc1)C(=O)N[C@@H](CCC(N)=O)C(=O)N[C@@H](CC(C)C)C(=O)N[C@@H](CC(C)C)C(=O)O [3102.0728] (H-GFMRFFQLL-OH)	8.62
CSCC[C@H](NC(=O)[C@H](C)NC(=O)[C@@H](N)CCSC)C(=O)N[C@@H](Cc1ccccc1)C(=O)N[C@@H](Cc1ccc(O)cc1)C(=O)N[C@@H](C)C(=O)N[C@@H](Cc1c[nH]cn1)C(=O)N[C@@H](C)C(=O)N[C@@H](CC(C)C)C(=O)O [3102.0776] (H-MAMFYAHAL-OH)	8.92
CC[C@H](C)[C@H](NC(=O)[C@H](CCCNC(=N)N)NC(=O)[C@H](CCCNC(=N)N)NC(=O)[C@H](CCSC)NC(=O)[C@H](CC(C)C)NC(=O)[C@H](C)NC(=O)[C@@H](N)CC(N)=O)C(=O)N[C@@H](C)C(=O)N[C@H](C(=O)O)C(C)C [3102.0577] (H-NALMRRIAV-OH)	7.77
CC[C@H](C)[C@H](NC(=O)[C@@H]1CCCN1C(=O)[C@H](CCCNC(=N)N)NC(=O)[C@H](Cc1c[nH]cn1)NC(=O)[C@H](CCCNC(=N)N)NC(=O)[C@H](CCCCN)NC(=O)[C@H](CC(N)=O)NC(=O)[C@@H](N)CO)C(=O)NCC(=O)O [3102.0687] (H-SNKRHRPIG-OH)	7.47
CC(C)C[C@H](NC(=O)[C@H](CO)NC(=O)CNC(=O)[C@H](Cc1ccccc1)NC(=O)[C@@H](NC(=O)[C@H](CCC(N)=O)NC(=O)[C@H](CCCCN)NC(=O)[C@H](Cc1ccccc1)NC(=O)[C@@H](N)Cc1ccccc1)[C@@H](C)O)C(=O)O [3102.0697] (H-FFKQTFGSL-OH)	9.13
CC[C@H](C)[C@H](NC(=O)[C@H](CCC(=O)O)NC(=O)[C@H](CCCNC(=N)N)NC(=O)[C@H](CC(C)C)NC(=O)[C@@H](N)CO)C(=O)N[C@@H](CO)C(=O)N[C@@H](CC(N)=O)C(=O)N[C@H](C(=O)N[C@H](C(=O)O)C(C)C)[C@@H](C)CC [3102.0645] (H-SLREISNIV-OH)	8.00
CC[C@H](C)[C@H](NC(=O)[C@H](CO)NC(=O)[C@H](Cc1c[nH]cn1)NC(=O)[C@H](Cc1ccc(O)cc1)NC(=O)[C@H](CCCNC(=N)N)NC(=O)[C@@H]1CCCN1C(=O)[C@@H](N)Cc1ccccc1)C(=O)N[C@@H](CCC(=O)O)C(=O)N[C@@H](CC(C)C)C(=O)O [3102.0626] (H-FPRYHSIEL-OH)	9.31
CC[C@H](C)[C@H](NC(=O)[C@H](CCCCN)NC(=O)[C@H](CC(C)C)NC(=O)[C@@H](NC(=O)[C@H](Cc1c[nH]cn1)NC(=O)[C@H](CCCCN)NC(=O)[C@H](CCCNC(=N)N)NC(=O)[C@H](CC(C)C)NC(=O)[C@@H](N)CC(C)C)[C@@H](C)O)C(=O)O [3102.0636] (H-LLRKHTLKI-OH)	7.68
